In PMC4994406, “Molecular cloning and characterization of a flavonoid-O-methyltransferase with broad substrate specificity and regioselectivity from Citrus depressa” (BMC Plant Biology, 2016):

How the values were obtained:
[1] = target: T1, CdFOMT5 (Citrus depressa, UniProt A0A125T1T5); test: HPLC of methylated product; format: biochemical; settings: 500 uM SAM, 100 uM substrate, 50 mM potassium phosphate pH 7.0, 30 °C, 1 h
T1 construct: gene FOMT5; full-length cDNA from fruit pericarp, C-terminal 6x His tag kept, pET21b(+) BamHI/SalI, E. coli BL21(DE3), Ni-Sepharose
T1 sequence (A0A125T1T5 1-353): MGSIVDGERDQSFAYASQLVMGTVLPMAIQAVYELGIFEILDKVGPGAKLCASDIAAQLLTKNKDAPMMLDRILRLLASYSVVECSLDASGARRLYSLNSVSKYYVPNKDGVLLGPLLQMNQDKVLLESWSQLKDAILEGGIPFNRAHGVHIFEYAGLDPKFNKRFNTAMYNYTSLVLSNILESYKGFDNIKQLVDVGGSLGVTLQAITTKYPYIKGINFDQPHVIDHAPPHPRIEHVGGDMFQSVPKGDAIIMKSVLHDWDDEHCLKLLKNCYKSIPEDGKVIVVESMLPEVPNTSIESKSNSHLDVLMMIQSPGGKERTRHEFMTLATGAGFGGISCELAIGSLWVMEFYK

[2] = target: T1, CdFOMT5; test: HPLC and LC-MS of O-methylated products; format: biochemical; settings: 500 uM SAM, 100 uM substrate, 50 mM potassium phosphate pH 7.0, 30 °C, 1 h

Structure (SMILES) | HPLC of methylated product [1] | HPLC and LC-MS of O-methylated products [2]
O=c1c(O)c(-c2ccccc2)oc2ccccc12 [3-hydroxyflavone] | the highest activity was observed for 3-hydroxyflavone (flavonol) based on the peak area | –
O=c1c(O)c(-c2ccc(O)c(O)c2)oc2cc(O)cc(O)c12 [S, quercetin] | – | several peaks corresponding to O-methylated products were detected by HPLC analysis
